{
  "source": "patent US9616047B2",
  "about": "“Inhibitors of beta-catenin in treatment of colorectal cancer” (Regents of the University of Minnesota, priority 2014, dated 2017)",
  "key": {"[1]": {"test_system": "HT-29 colon cancer cells", "experiment": "Soft agar assay, anchorage-independent growth, HT29", "type": "cell-based", "description": "(§1) FIG. 2. […] HCT116 and HT-29 colon cancer cells. Colony formation of two cell lines were inhibited by treatment of β-catenin inhibitor candidates. Cells (8×10^3/ml) were incubated with or without HI-B5 or HI-B9 compounds in 1 mL of 0.33% BME agar containing 10% FBS or in 3.5 mL of 0.5% BME agar containing 10% FBS. The cultures were maintained at 37° C. in a 5% CO2 incubator for 7 days, after which the cell colonies were counted under a microscope.\n(§2) Cells (8×10^3 per well) suspended in Basal Medium Eagle (BME) supplemented with 10% FBS were added to 0.3% agar with different doses of chemicals in a top layer over a basal layer of 0.6% agar. The cultures were maintained at 37° C. in a 5% CO2 incubator for 2 wk and then colonies were counted under a microscope using the Image-Pro Plus Software (v.4) program (Media Cybernetics)."}, "[2]": {"test_system": "β-catenin", "experiment": "Ex vivo pull-down with compound-conjugated Sepharose 4B beads and colon cancer cell lysate: β-catenin", "type": "binding", "conditions": "colon cancer cell lysates; compound-conjugated Sepharose 4B beads", "description": "Protein extracts (500 μg) of colon cancer cells were mixed with Sepharose-4B beads (as a negative control) or chemical-conjugated Sepharose 4B beads (100 μl) in reaction buffer. After being washed five times with buffer, the proteins were visualized by Western blot analysis."}, "[3]": {"test_system": "β-catenin/Tcf-4 luciferase activity", "experiment": "β-catenin/Tcf-4 luciferase assay of HI-B9 derivatives (cell line not stated)", "type": "cell-based", "conditions": "FIG. 6A", "description": "(§3) (B) HI-B16 inhibited anchorage-independent growth of colon cancer cells. HCT116, HT29, DLD1 and SW480 were incubated in agar plate with or without HI-B16 and HI-B9. In every case, HI-B16 was better than HI-B9 treatment.\nTransient transfection was performed using jetPEI and assays to detect firefly luciferase and Renilla activities according to the manufacturer's manual (Promega). Briefly, cells were seeded onto 10-cm plates and co-transfected with 400 ng of the Renilla luciferase internal control gene and 4 μg of the TOP-flash luciferase reporter construct containing three tandem Tcf consensus binding sites upstream of luciferase cDNA, or the FOPflash luciferase reporter construct, a plasmid with mutated Tcf binding sites. After 16 h of transfection, cells were trypsinized and seeded onto 48-well plates, and cells were treated with respective chemicals for 24 h. Luciferase and Renilla activities were measured using their substrates."}, "[4]": {"test_system": "HCT116 colon cancer cells", "experiment": "Soft agar assay, anchorage-independent growth, HCT116", "type": "cell-based", "description": "as §1, §2"}, "[5]": {"test_system": "c-Myc and cyclin D1", "experiment": "Western blot analysis of β-catenin/Tcf-4 targets", "type": "cell-based", "description": "Proteins from cell lysates were prepared, separated by SDS-PAGE and transferred to Immobilon-P membranes (Millipore Corporation, Billerica, Mass.). Membranes were blocked with 5% nonfat dry milk for 1 h at room temperature and incubated with each of the primary and secondary antibodies. The signal was detected with a chemiluminescence reagent (Amersham)."}, "[6]": {"test_system": "colon cancer cells", "experiment": "Proliferation and anchorage-independent growth of colon cancer cells (statements over several lines)", "type": "cell-based", "conditions": "every cell line tested: HCT116, HT29, DLD1 and SW480", "description": "as §2"}, "[7]": {"test_system": "SW480", "experiment": "Soft agar assay, anchorage-independent growth, SW480", "type": "cell-based", "description": "as §3, §2"}, "[8]": {"biological_target": "T1, human β-catenin (126-781 amino acid residues) (Homo sapiens, UniProt P35222)", "T1 construct": "human β-catenin (126-781 amino acid residues)", "T1 sequence (P35222 126-781)": "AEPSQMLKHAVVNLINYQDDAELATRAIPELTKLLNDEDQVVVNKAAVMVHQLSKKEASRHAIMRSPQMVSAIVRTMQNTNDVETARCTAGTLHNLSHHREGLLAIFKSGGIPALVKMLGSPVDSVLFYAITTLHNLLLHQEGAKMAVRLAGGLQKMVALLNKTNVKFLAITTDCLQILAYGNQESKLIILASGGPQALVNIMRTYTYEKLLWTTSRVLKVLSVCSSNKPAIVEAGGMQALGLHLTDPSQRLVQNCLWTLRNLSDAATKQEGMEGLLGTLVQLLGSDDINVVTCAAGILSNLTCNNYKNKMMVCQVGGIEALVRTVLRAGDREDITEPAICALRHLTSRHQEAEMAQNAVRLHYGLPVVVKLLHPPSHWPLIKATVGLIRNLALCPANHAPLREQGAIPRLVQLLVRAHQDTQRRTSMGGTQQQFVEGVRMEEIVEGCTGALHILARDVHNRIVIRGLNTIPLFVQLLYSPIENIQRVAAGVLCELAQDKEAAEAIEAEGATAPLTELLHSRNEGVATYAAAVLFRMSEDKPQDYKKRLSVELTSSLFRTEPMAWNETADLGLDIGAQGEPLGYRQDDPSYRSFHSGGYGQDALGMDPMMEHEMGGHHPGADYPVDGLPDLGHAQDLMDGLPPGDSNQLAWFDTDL", "experiment": "In vitro binding assay with purified β-catenin and compound-conjugated sepharose 4B bead", "description": "FIGS. 7A-C. […] 2% of input from each experiments were used to show equal amount of incubated protein (purified or total cell lysates).\nBased on the structure of the active compound HI-B9, additional analogs HI-B12, 13, 16, 17 and 20 (FIG. 5) were de novo designed and synthesized. […] 2% of input from each experiments were used to show equal amount of incubated protein (purified or total cell lysates)."}, "[9]": {"test_system": "DLD1", "experiment": "Soft agar assay, anchorage-independent growth, DLD1", "type": "cell-based", "description": "as §3, §2"}},
  "data": [
    {"smiles": "O=C(CC1(O)C(=O)Nc2ccc(F)cc21)c1ccc(O)c(C23CC4CC(CC(C4)C2)C3)c1", "note": "(centres unmarked) [HI-B16]", "values": [
      {"measurement": "anchorage-independent growth (colony formation in soft agar)", "setting": "[1]", "result": "inhibit anchorage-independent growth"},
      {"measurement": "binding to β-catenin (ex vivo pull-down)", "setting": "[2]", "result": "resulted in HI-B16/β-catenin binding"},
      {"measurement": "inhibitory effect in β-catenin/Tcf-4 luciferase assay compared with HI-B9", "setting": "[3]", "result": "exerted inhibitory effects better than HI-B9"},
      {"measurement": "inhibition of luciferase activity", "setting": "[3]; concentration not given", "result": "~90", "unit": "%"},
      {"measurement": "anchorage-independent growth (colony formation in soft agar)", "setting": "[4]", "result": "inhibit anchorage-independent growth"},
      {"measurement": "protein expression of c-Myc and cyclin D1", "setting": "[5]", "result": "inhibited cyclin D1 and c-myc expression"},
      {"measurement": "β-catenin and Tcf-4 expression level", "setting": "[5]", "result": "not affected"},
      {"measurement": "inhibition of anchorage-independent growth compared with HI-B9 treatment", "setting": "[6]", "result": "more effective than HI-B9"},
      {"measurement": "anchorage-independent growth (colony formation in soft agar)", "setting": "[7]", "result": "inhibit anchorage-independent growth"},
      {"measurement": "binding of purified β-catenin to compound-conjugated bead (in vitro)", "setting": "[8]", "result": "bound"},
      {"measurement": "anchorage-independent growth (colony formation in soft agar)", "setting": "[9]", "result": "inhibit anchorage-independent growth"}
    ]}
  ]
}
